Results from US12421257B2, “Compositions and methods for inhibiting group II intron RNA” (YALE UNIVERSITY, priority 2018, dated 2025).
Values after ≈ are worked out from the molar mass of the structure shown.

What was measured:
[1] = system: ai5γ group II intron (D135 ribozyme); test: Fluorescent D135 ribozyme cleavage assay (IC50); assay type: biochemical, Saccharomyces cerevisiae; conditions: D135 ribozyme cleavage of substrate 17/2 DL, 100 mM MgCl2, 500 mM KCl, 37° C., 10 minutes
Experimental: The D135 ribozyme (Su et al., 2005, Nucleic Acids Res, 33:6674-6687), fluorescently labeled oligo substrate 17/2 DL (FIG. 1A-FIG. 1D) (both at 20 nM final concentrations in 50 mM MOPS, pH 7.0, 100 mM MgCl2, 0.5M KCl), and the test compounds (final concentration of 10 μM in 50 mM MOPS, pH 7.0, 100 mM MgCl2, 0.5M KCl) were aliquoted onto black non-binding 384-well plates (Corning 3757) using the multidrop combi (ThermoFisherScientific) and pintool (V & P Scientific). The reaction mixtures were incubated at 37° C. for 45 minutes, then the reaction was quenched with 100 mM EDTA and fluorescence intensity was analyzed on a Tecan Infinite multimode plate reader (λex 520 nm, λem 560 nm, 5 nm bandwidth). Data were normalized to untreated wells and wells lacking the D135 ribozyme, and percent of inhibition was calculated using ActivityBase (IDBS). The Z′-factor was calculated as described (Zhang et al., 1999, J Biomol Screen, 4:67-73): Z′=1−3×(σp+σn)/|μp−μn|, • where μp and σn are mean value and standard deviation for the positive control (substrate only), and where μn and σn are mean value and standard deviation for the negative control (no compound). The average Z′-factor from the screen was 0.83±0.03. IC50 Measurement for the Small Molecule Inhibition of the D135 Ribozyme Cleavage Reaction.
Black 96-well plates (Corning 3695) were filled with 50 μl of solution containing 20 nM D135 ribozyme, 20 nM double-labeled substrate 17/2 DL and small molecule inhibitor in 50 mM MOPS, pH 7.0, 100 mM MgCl2 and 500 mM KCl. Small molecule inhibitors were tested at 19 different concentrations ranging from 5 nM to 1 mM. Plates were incubated at 37° C. for 10 minutes, then reaction mixtures were quenched with 100 mM EDTA and analyzed on the Synergy H1 plate reader (BioTek). Each experiment was performed in triplicate. Data were fit to a 4-parameter logistic function c+(d−c)/(1+(x/a)^b), where a is the IC50, b is the slope parameter, c is the minimum response and d is the maximum response. Data are reported as average±s.e.m

C. parapsilosis = test: MIC determination against C. parapsilosis; assay type: cell-based, Candida parapsilosis; conditions: Lodderomyces parapsilosis; RPMI-1640, 35° C. or 37° C., turbidity after 24 and 48 hours
Experimental: Minimal inhibitory concentrations (MICs) for C. parapsilosis were determined in a final volume of 100 μl. Fresh stock solutions of control antifungal drugs (Amphotericin B and Itraconazole) and of test compounds were prepared at 3.2 mg/ml and at 12.8 mg/ml respectively in DMSO. After placing the stock in the first well, solutions of test compounds and antifungal controls were serially diluted 1:2 with DMSO into the first […] successive wells of a 12-well row on a 96-well plate (as described above). After dilution, 2.5 μl from each of these 10 wells were transferred onto a separate 96-well plate and diluted with 122.5 μl of RPMI-1640 medium (Sigma). Wells 11 and 12 contained 2.5 μl DMSO and 122.5 μl of RPMI-1640 as a positive growth control (no compound) and sterility control (no inoculum added). A 50 μl volume was taken from each of the RPMI dilutions (wells 1-12) and transferred to the wells of a third 96-well plate (assay plate), where they were mixed with an equal volume (50 μl) of freshly prepared inoculum of C. parapsilosis in RPMI-1640 medium, set at a density to provide the 0.5×10^3 to 2.5×10^3 colony forming units per 1 mL (except for the sterility control). Sterility control was mixed with 50 μl of sterile medium.
The final concentration range of the assay was 0.25-128 μg/ml for test compounds and 0.0625-32 μg/ml for Amphotericin B and Itraconazole. The final concentration of DMSO was 1%. The assay plate was incubated at 35° C. or 37° C. and visually analyzed for turbidity after 24 and 48 hours of incubation. The lowest compound concentration at which no growth was apparent is reported as the MIC. All experiments were performed in triplicate.

HEK-293T cells = test: Cytotoxicity in HEK-293T cells (Cell Titer Glo); assay type: cell-based, human; conditions: Homo sapiens, cytotoxicity, 24 hours with compound, read-out: IC50 HEK-293
Experimental: HEK-293T cells were cultured in Dulbecco's Modified Eagle's Medium (DMEM) (Gibco) supplemented with 10% Fetal Bovine Serum (FBS, Gibco) and 100 U/ml of Penicillin-Streptomycin (Gibco) at 37° C. and 5% CO2. For the cytotoxicity experiments, cells were aliquoted into black 96-well plates with a clear bottom (Corning 3603) at a concentration of 10,000 cells per well. The cells were grown at 37° C., 5% CO2 for 5-6 hours, then the medium was replaced with the same medium without FBS and cells were grown at 37° C., 5% CO2 for 24 hours. Freshly prepared stock solutions of test compounds (12.8 mg/ml in DMSO) were serially diluted 1:2 with DMSO into the first 11 successive wells of a 12-well row on a 96-well plate as described above. Well 12 was used as a growth control (no compound). […] After incubation, cell viability was determined using the luminescent Cell Titer Glo cell viability assay (Promega), in which 100 μl of the assay reagent was added to each well of the assay plate. After gentle shaking for 7-10 minutes, the plates were analyzed on a Synergy H1 plate reader (BioTek). Luminescence was plotted against the compound concentration and IC50 values were determined by fitting the data to a 4-parameter logistic function c+(d−c)/(1+(x/a)^b), where a is the IC50, b is the slope parameter, c is the minimum response and d is the maximum response. Experiments were replicated to ensure reproducibility.

IC50 [1] | MIC (C. parapsilosis) | SMILES | IC50 (HEK-293T cells)
> 500 µM | > 128 µg/mL | COc1cc(/C=C2\Oc3cc(O)cc(O)c3C2=O)cc(OC)c1OC [APY-003] | > 64 µg/mL
> 500 µM | > 128 µg/mL | COc1cc(/C=C2\Oc3cc(O)cc(O)c3C2=O)cc(OC)c1 [APY-012] | 
 | 8 µg/mL (≈ 29.6 µM) | O=C1/C(=C/c2cc(O)c(O)c(O)c2)Oc2ccccc21 [APY-024, (Z)-2-(3,4,5-Trihydroxybenzylidene)benzofuran-3(2H)-one] | 23 ± 2 µg/mL
6.3 µM | 32 µg/mL (≈ 98.7 µM) | O=C(N/N=C/c1cc(F)c(O)c(F)c1)c1cc(O)c(O)c(O)c1 [APY-031] | 47.8 µg/mL
10.6 µM | 8 µg/mL (≈ 27.8 µM) | O=C(N/N=C/c1ccc(O)cc1)c1cc(O)c(O)c(O)c1 [APY-032] | 4.14 µg/mL
6.5 µM | 8 µg/mL (≈ 24.8 µM) | O=C(N/N=C/c1ccc(O)cc1Cl)c1cc(O)c(O)c(O)c1 [APY-033] | 50 µg/mL
4.7 µM | 8 µg/mL (≈ 24.8 µM) | O=C(N/N=C/c1ccc(O)c(Cl)c1)c1cc(O)c(O)c(O)c1 [APY-034] | 54.5 µg/mL
7.7 µM | 4 µg/mL (≈ 11.5 µM) | COc1cc(/C=N/NC(=O)c2cc(O)c(O)c(O)c2)cc(OC)c1O [APY-035] | 39.3 µg/mL
7.7 µM | 4 µg/mL (≈ 11.5 µM) | COc1cc(/C=N/NC(=O)c2cc(O)c(O)c(O)c2)cc(O)c1OC [APY-036] | 10.4 µg/mL
3.7 µM | 8 µg/mL (≈ 26.3 µM) | O=C(N/N=C/c1cccc(O)c1O)c1cc(O)c(O)c(O)c1 [APY-037] | 5.4 µg/mL
9.9 µM | 8 µg/mL (≈ 27.8 µM) | O=C(N/N=C/c1cccc(O)c1)c1cc(O)c(O)c(O)c1 [APY-040] | 30.1 µg/mL
3.8 µM | 8 µg/mL (≈ 24.1 µM) | COc1ccc(/C=N/NC(=O)c2cc(O)c(O)c(O)c2)cc1OC [APY-041] | 49.5 µg/mL
> 500 µM | > 128 µg/mL | COc1cccc(/C=N/NC(=O)c2ccc(O)c(O)c2)c1O [APY-054] | > 64 µg/mL
12.9 µM | 16 µg/mL (≈ 58.3 µM) | O=C(N/N=C/c1cncnc1)c1cc(O)c(O)c(O)c1 [APY-057] | 39.4 µg/mL
10.1 µM | 4 µg/mL (≈ 12.2 µM) | COc1ccc(/C=C/C=N/NC(=O)c2cc(O)c(O)c(O)c2)cc1 [APY-058] | 23 µg/mL
 | 16 µg/mL (≈ 59.2 µM) | O=C(c1cc(O)c(O)c(O)c1)c1cc2ccccc2o1 [APY-068, Benzofuran-2-yl(3,4,5-trihydroxyphenyl)methanone] | 1.3 ± 0.3 µg/mL
6.4 µM | 32 µg/mL (≈ 112 µM) | O=C(c1cc(O)c(O)c(O)c1)N1CCc2ccccc2C1 [APY-085] | 18.7 µg/mL
61 µM | 64 µg/mL (≈ 214 µM) | O=C(c1cc(O)c(O)c(O)c1)N1CCC(c2ccccc2)C1 (stereo not drawn) [APY-086] | 43.7 µg/mL
79 µM | 32 µg/mL (≈ 102 µM) | O=C(c1cc(O)c(O)c(O)c1)N1CCC(c2ccccc2)CC1 [APY-087] | 8.4 µg/mL

IC50 [1] | MIC (C. parapsilosis) | SMILES | IC50 (HEK-293T cells)
24 µM | 16 µg/mL (≈ 43 µM) | O=C(c1cc(O)c(O)c(O)c1)N1CCC(c2noc3cc(F)ccc23)CC1 [APY-088] | 6.55 µg/mL
1.3 µM | 16 µg/mL (≈ 35.8 µM) | CCN(CC)Cc1ccc(-c2ccc(-c3nc(-c4cc(O)c(O)c(O)c4)cs3)cc2)cc1 [APY-092] | 24.8 µg/mL
 | 8 to 16 µg/mL (≈ 16.6 to 33.2 µM) | CCCCNS(=O)(=O)c1ccc(-c2ccc3oc(C(=O)c4cc(O)c(O)c(O)c4)cc3c2)cc1 [APY-094, N-Butyl-4-{2[(3,4,5-trihydroxyphenyl)carbonyl]-1-benzofuran-5-yl}benzene-1-sulfonamide] | 15 ± 4 µg/mL
 | 4 to 8 µg/mL (≈ 8.13 to 16.3 µM) | O=C(c1cc(O)c(O)c(O)c1)c1cc2cc(-c3ccc(C(=O)NC4CCCC4)c(Cl)c3)ccc2o1 [APY-095] | 2.5 µg/mL
 | 2 to 4 µg/mL (≈ 3.94 to 7.88 µM) | CCN(Cc1ccccc1)C(=O)c1ccc(-c2ccc3oc(C(=O)c4cc(O)c(O)c(O)c4)cc3c2)cc1 [APY-096] | 1.4 µg/mL
> 1000 µM | > 128 µg/mL | CS(=O)(=O)c1ccc(C(=O)c2cc3cc(-c4ccc(CO)cc4)ccc3o2)cc1 [APY-099] | 8.2 µg/mL
> 1000 µM | > 128 µg/mL | O=C(c1ccc([N+](=O)[O-])cc1)c1cc2cc(-c3ccc(CO)cc3)ccc2o1 [APY-100] | > 128 µg/mL
46 ± 2 µM | 8 µg/mL (≈ 25 µM) | Oc1cc(-c2csc(-c3ccc(Cl)cc3)n2)cc(O)c1O [NED-2014] | 0.6 µg/mL
> 1000 µM | 16 to 32 µg/mL (≈ 50.9 to 102 µM) | O=C(c1cc(O)c(O)c(O)c1)N1CCN(c2ccccc2)CC1 [NED-2015] | 4.4 µg/mL
> 1000 µM | 4 µg/mL (≈ 12.2 µM) | Oc1cc(-c2nc3ccc(C(F)(F)F)cc3s2)cc(O)c1O [NED-2016] | 1.5 µg/mL
> 1000 µM | 16 to 32 µg/mL (≈ 50.9 to 102 µM) | O=C(O)c1ccc2oc(C(=O)c3cc(O)c(O)c(O)c3)cc2c1 [NED-2017] | 
> 1000 µM | 32 to 64 µg/mL (≈ 76.7 to 153 µM) | Cc1ccc(NC(=O)c2ccc3oc(C(=O)c4cc(O)c(O)c(O)c4)cc3c2)c(C)c1 [NED-2021, N-(2,4-dimethylphenyl)-2-(3,4,5-trihydroxybenzoyl)benzofuran-5-carboxamide] | 
52 ± 12 µM | 16 µg/mL (≈ 37.7 µM) | CC(C)N1CCN(C(=O)c2ccc3oc(C(=O)c4cc(O)c(O)c(O)c4)cc3c2)CC1 [NED-2022, (4-isopropylpiperazin-1-yl)(2-(3,4,5-trihydroxybenzoyl)-benzofuran-5-yl)methanone] | 
6 ± 1 µM | 8 µg/mL (≈ 22.1 µM) | COc1cc(/C=N/NC(=O)c2cc(O)c(O)c(O)c2)cc(OC)c1OC [NED-2039, (E)-3,4,5-trihydroxy-N′-(3,4,5-trimethoxybenzylidene)benzohydrazide] | 
12 ± 4 µM | 32 µg/mL (≈ 77 µM) | CCN(CC)CCNC(=O)c1c(C)[nH]c(/C=C/C(=O)c2cc(O)c(O)c(O)c2)c1C [NED-2041] | 
> 1000 µM | 16 µg/mL (≈ 37.4 µM) | Cc1[nH]c(/C=C/C(=O)c2cc(O)c(O)c(O)c2)c(C)c1C(=O)N1CCC(N(C)C)CC1 [NED-2042] | 
77 ± 3 µM | 16 to 32 µg/mL (≈ 86.9 to 174 µM) | NNC(=O)c1cc(O)c(O)c(O)c1 [NED-2047, 3,4,5-trihydroxybenzohydrazide] | 
 | 16 to 32 µg/mL (≈ 57.5 to 115 µM) | O=C(N/N=C/C1CCCCC1)c1cc(O)c(O)c(O)c1 [NED-2251, (E)-N′-(cyclohexylmethylene)-3,4,5-trihydroxybenzohydrazide] | 
